Article PMC6719321 (Clinical Pharmacokinetics, 2019)

Columns and labels:
[1] = Trial 1: safety and tolerability, treatment-emergent adverse events; assay type: in vivo, human; conditions: after warfarin 25 mg, day 9, one subject, moderate severity, possibly related to warfarin
[2] = cited from earlier work
[3] = cited from earlier work; remark: listed apart in the source
Trial 2 = assay type: in vivo, human
[4] = trial 2, oral semaglutide 20 mg once daily

In the case of `NCCCC[C@H](N[C@@H](CCc1ccccc1)C(=O)O)C(=O)N1CCC[C@H]1C(=O)O` [Lisinopril, lisinopril], the tmax (Trial 1; lisinopril 20 mg single dose alone, N = 52, median (minimum, maximum)) was 6.0 h.

In the case of `CC(=O)CC(c1ccccc1)c1c(O)c2ccccc2oc1=O` (stereo not drawn) [Warfarin, warfarin], the “INRmax of the subject with a bleeding event (epistaxis)” value [1] is listed as 2.53 and the absorption ([2]; oral) is listed as “completely absorbed”.

In the case of “subcutaneous semaglutide: semaglutide as once-weekly subcutaneous injection”, the “mean t½ for subcutaneous semaglutide” value [2] is listed as 156 to 160 h.

In the case of `CN(C)C(=N)N=C(N)N` [Metformin, metformin], the tmax generally reported [2] is given as 2.5 h, the “Increase in AUC on coadministration of multiple doses of dulaglutide” value ([3]; steady-state metformin) is given as “up to 15%” and the “tmax in trial 2” value (Trial 2; metformin steady state, morning dose fasting) is given as 0.8 to 1.0 h.

In the case of `C[C@H]1O[C@@H](O[C@H]2[C@@H](O)C[C@H](O[C@H]3[C@@H](O)C[C@H](O[C@H]4CC[C@@]5(C)[C@H](CC[C@@H]6[C@@H]5C[C@@H](O)[C@]5(C)[C@@H](C7=CC(=O)OC7)CC[C@]65O)C4)O[C@@H]3C)O[C@@H]2C)C[C@H](O)[C@@H]1O` [Digoxin, digoxin], the “absorption (incomplete)” value ([2]; oral) is given as ~ 70%, the half-life ([2]; used to set the length of the washout periods, no reference given) is given as 30 to 50 h and the “Reduction of Cmax on coadministration with liraglutide” value [3] is given as 27–38%. The “AUC on coadministration with exenatide” value ([3]; digoxin PK) was “unchanged”, the “Decrease of Cmax on coadministration with exenatide” value ([3]; digoxin PK) was 17% and the tmax (Trial 2; digoxin 500 μg single dose alone, N = 31, median (minimum, maximum)) was 1.0 h. For the same molecule, the “mean t½” value (Trial 2; digoxin single dose, alone and with oral semaglutide (both conditions)) was 42 to 43 h.

In the case of `CC[C@H](C)[C@H](NC(=O)[C@H](Cc1ccccc1)NC(=O)[C@H](CCC(=O)O)NC(=O)[C@H](CCCCNC(=O)COCCOCCNC(=O)COCCOCCNC(=O)CC[C@H](NC(=O)CCCCCCCCCCCCCCCCC(=O)O)C(=O)O)NC(=O)[C@H](C)NC(=O)[C@H](C)NC(=O)[C@H](CCC(N)=O)NC(=O)CNC(=O)[C@H](CCC(=O)O)NC(=O)[C@H](CC(C)C)NC(=O)[C@H](Cc1ccc(O)cc1)NC(=O)[C@H](CO)NC(=O)[C@H](CO)NC(=O)[C@@H](NC(=O)[C@H](CC(=O)O)NC(=O)[C@H](CO)NC(=O)[C@@H](NC(=O)[C@H](Cc1ccccc1)NC(=O)[C@@H](NC(=O)CNC(=O)[C@H](CCC(=O)O)NC(=O)C(C)(C)NC(=O)[C@@H](N)Cc1cnc[nH]1)[C@@H](C)O)[C@@H](C)O)C(C)C)C(=O)N[C@@H](C)C(=O)N[C@@H](Cc1c[nH]c2ccccc12)C(=O)N[C@@H](CC(C)C)C(=O)N[C@H](C(=O)N[C@@H](CCCNC(=N)N)C(=O)NCC(=O)N[C@@H](CCCNC(=N)N)C(=O)NCC(=O)O)C(C)C` [semaglutide], the “AUC0–24h at steady state, range of geometric means” value (Trial 2; [4]) was 622 to 719 nM·h, the “Cmax at steady state, range of geometric means” value (Trial 2; [4]) was 0.031 to 0.0358 µM and the “Mean AUC0–24h at steady state” value (Trial 1; trial 1, oral semaglutide 20 mg once daily, after last dose (day 84)) was 761.96 nM·h. The “mean t½” value (Trial 1; trial 1, oral semaglutide 20 mg once daily, steady state) was 162 h.
